According to US20080103205A1, “Pesticidal compositions and methods of use” (priority 2006, published 2008):
Read-outs that look alike come from different tables or passages of the source.

Assays:
Caenorhabditis elegans = test: Toxicity test, adult Caenorhabditis elegans, 96 well micro plate; type: in vivo; conditions: Caenorhabditis elegans
Protocol: Methodology: Toxicity tests were conducted using J2 juveniles of Meloidogyne incognita adult Caenorhabditis elegans collected from nematode-infested tomato plant roots and culture Petri plates, respectively. Test concentrations of 50, 100, 200, 300, or 400 ppm were prepared in 0.2% dimethylsulfoxide (DMSO) in tap water. Aliquots (300 microliters (ul)) were applied to a 96 well micro plate and a 20 ul aqueous solution containing nematodes was added. The number of nematodes in 20 ul ranged from 17 to 30. Micro plates were sealed with Parafilm™ and incubated at room temperature. Similar tests conducted with 0.2% DMSO in tap water served as controls. Nematode mortality was checked at 24, 48, 72, 120, and 168 hr after incubation. Nematodes that were motionless for 30 sec when observed under a stereomicroscope were considered paralyzed and included in mortality counts. Each concentration was replicated five times and mean percent mortality was calculated after correcting for control mortality using Abbott's formula.
Data Analysis: Mortality data were analyzed using PROC PROBIT (SAS) program and LC50 values were estimated.

[1] = test system: Meloidogyne incognita eggs; test: M. incognita egg hatching; type: in vivo
Protocol: Meloidogyne incognita (plant parasitic nematode) eggs were collected from tomato plant roots and were suspended in water. The solution was either diluted or concentrated to adjust the egg load to about 5000/ml. AT stock solutions prepared in DMSO and 300 ul of test solution was placed in a well, along with 20 ul of aqueous solution containing eggs. The number of eggs in 20 ul solution ranged from 115 to 143 (n=10). Each treatment (2, 5, 10, 20, or 40 ppm) was replicated 5 times. Microplates were sealed with Parafilm™ and incubated at room temperature. Similar tests conducted with 0.2% DMSO alone served as controls. Egg hatching was monitored at 24, 72, 120, and 168 hr after incubation. Both moving and non-moving nematodes were counted to arrive at the number of eggs hatched. Proportion of egg hatch was calculated as the number of juveniles divided by total number of eggs.
VSCC blockers effect on M. incognita egg hatching is shown in the following tables where % hatched is rounded to the nearest percentage point and where “% C*” is % hatch, normalized to control.

[2] = 24 h, read-out: Corrected Mortality (%)
[3] = 48 h, read-out: Corrected Mortality (%)
[4] = 72 h, read-out: Corrected Mortality (%)
[5] = 120 h, read-out: Corrected Mortality (%)
[6] = 168 h, read-out: Corrected Mortality (%)

Question: `O=C(O)c1cc([N+](=O)[O-])ccc1NCCCc1ccccc1` [NPPB, 5-Nitro-2-(3-phenylpropylamino)benzoic acid] was tested. Which mortality at 50 ppm (Caenorhabditis elegans; 24 h) did it give?
Answer: 14%

Question: What about the mortality at 100 ppm (Caenorhabditis elegans; 24 h) of the same compound?
Answer: 17%

Question: And the mortality at 200 ppm (Caenorhabditis elegans; 24 h)?
Answer: 20%

Question: And the mortality at 300 ppm (Caenorhabditis elegans; 24 h)?
Answer: 22%

Question: And the mortality at 400 ppm (Caenorhabditis elegans; 24 h)?
Answer: 24%

Question: What about the mortality at 50 ppm (Caenorhabditis elegans; [2]) of the same compound?
Answer: 10%

Question: What about the mortality at 100 ppm (Caenorhabditis elegans; [2]) of the same compound?
Answer: 14%

Question: What about the mortality at 200 ppm (Caenorhabditis elegans; [2]) of the same compound?
Answer: 18%

Question: What about the mortality at 300 ppm (Caenorhabditis elegans; [2]) of the same compound?
Answer: 20%

Question: And the mortality at 400 ppm (Caenorhabditis elegans; [2])?
Answer: 22%

Question: And the mortality at 50 ppm (Caenorhabditis elegans; 48 h)?
Answer: 26%

Question: And the mortality at 100 ppm (Caenorhabditis elegans; 48 h)?
Answer: 36%

Question: What about the mortality at 200 ppm (Caenorhabditis elegans; 48 h) of the same compound?
Answer: 44%

Question: What about the mortality at 300 ppm (Caenorhabditis elegans; 48 h) of the same compound?
Answer: 49%

Question: And the mortality at 400 ppm (Caenorhabditis elegans; 48 h)?
Answer: 53%

Question: What about the mortality at 50 ppm (Caenorhabditis elegans; [3]) of the same compound?
Answer: 22%

Question: And the mortality at 100 ppm (Caenorhabditis elegans; [3])?
Answer: 33%

Question: And the mortality at 200 ppm (Caenorhabditis elegans; [3])?
Answer: 41%

Question: What about the mortality at 300 ppm (Caenorhabditis elegans; [3]) of the same compound?
Answer: 46%

Question: What about the mortality at 400 ppm (Caenorhabditis elegans; [3]) of the same compound?
Answer: 51%

Question: What about the mortality at 50 ppm (Caenorhabditis elegans; 72 h) of the same compound?
Answer: 47%

Question: And the mortality at 100 ppm (Caenorhabditis elegans; 72 h)?
Answer: 62%

Question: What about the mortality at 200 ppm (Caenorhabditis elegans; 72 h) of the same compound?
Answer: 73%

Question: And the mortality at 300 ppm (Caenorhabditis elegans; 72 h)?
Answer: 80%

Question: What about the mortality at 400 ppm (Caenorhabditis elegans; 72 h) of the same compound?
Answer: 84%

Question: What about the mortality at 50 ppm (Caenorhabditis elegans; [4]) of the same compound?
Answer: 43%

Question: And the mortality at 100 ppm (Caenorhabditis elegans; [4])?
Answer: 59%

Question: And the mortality at 200 ppm (Caenorhabditis elegans; [4])?
Answer: 71%

Question: What about the mortality at 300 ppm (Caenorhabditis elegans; [4]) of the same compound?
Answer: 78%

Question: And the mortality at 400 ppm (Caenorhabditis elegans; [4])?
Answer: 83%

Question: What about the mortality at 50 ppm (Caenorhabditis elegans; 120 h) of the same compound?
Answer: 70%

Question: What about the mortality at 100 ppm (Caenorhabditis elegans; 120 h) of the same compound?
Answer: 85%

Question: And the mortality at 200 ppm (Caenorhabditis elegans; 120 h)?
Answer: 93%

Question: What about the mortality at 300 ppm (Caenorhabditis elegans; 120 h) of the same compound?
Answer: 97%

Question: And the mortality at 400 ppm (Caenorhabditis elegans; 120 h)?
Answer: 100%

Question: What about the mortality at 50 ppm (Caenorhabditis elegans; [5]) of the same compound?
Answer: 66%

Question: And the mortality at 100 ppm (Caenorhabditis elegans; [5])?
Answer: 83%

Question: And the mortality at 200 ppm (Caenorhabditis elegans; [5])?
Answer: 92%

Question: And the mortality at 300 ppm (Caenorhabditis elegans; [5])?
Answer: 97%

Question: And the mortality at 400 ppm (Caenorhabditis elegans; [5])?
Answer: 100%

Question: What about the mortality at 50 ppm (Caenorhabditis elegans; 168 h) of the same compound?
Answer: 93%

Question: And the mortality at 100 ppm (Caenorhabditis elegans; 168 h)?
Answer: 99%

Question: What about the mortality at 200 ppm (Caenorhabditis elegans; 168 h) of the same compound?
Answer: 100%

Question: What about the mortality at 300 ppm (Caenorhabditis elegans; 168 h) of the same compound?
Answer: 100%

Question: And the mortality at 400 ppm (Caenorhabditis elegans; 168 h)?
Answer: 100%

Question: What about the mortality at 50 ppm (Caenorhabditis elegans; [6]) of the same compound?
Answer: 92%

Question: What about the mortality at 100 ppm (Caenorhabditis elegans; [6]) of the same compound?
Answer: 99%

Question: What about the mortality at 200 ppm (Caenorhabditis elegans; [6]) of the same compound?
Answer: 100%

Question: And the mortality at 300 ppm (Caenorhabditis elegans; [6])?
Answer: 100%

Question: And the mortality at 400 ppm (Caenorhabditis elegans; [6])?
Answer: 100%

Question: What about the “Eggs Hatched %” value ([1]; 2 ppm, 24 hr) of the same compound?
Answer: 10%

Question: And the “Eggs Hatched % C* (% hatch, normalized to control)” value ([1]; 2 ppm, 24 hr)?
Answer: 100%

Question: And the “Eggs Hatched No.” value ([1]; 2 ppm, 24 hr)?
Answer: 61

Question: What about the “Eggs Hatched %” value ([1]; 2 ppm, 72 hr) of the same compound?
Answer: 14%

Question: What about the “Eggs Hatched % C* (% hatch, normalized to control)” value ([1]; 2 ppm, 72 hr) of the same compound?
Answer: 87%

Question: And the “Eggs Hatched No.” value ([1]; 2 ppm, 72 hr)?
Answer: 92

Question: What about the “Eggs Hatched %” value ([1]; 2 ppm, 120 hr) of the same compound?
Answer: 19%

Question: And the “Eggs Hatched % C* (% hatch, normalized to control)” value ([1]; 2 ppm, 120 hr)?
Answer: 86%

Question: And the “Eggs Hatched No.” value ([1]; 2 ppm, 120 hr)?
Answer: 127

Question: And the “Eggs Hatched %” value ([1]; 2 ppm, 168 hr)?
Answer: 23%

Question: And the “Eggs Hatched % C* (% hatch, normalized to control)” value ([1]; 2 ppm, 168 hr)?
Answer: 83%

Question: What about the “Eggs Hatched No.” value ([1]; 2 ppm, 168 hr) of the same compound?
Answer: 155

Question: And the “Eggs Hatched %” value ([1]; 5 ppm, 24 hr)?
Answer: 10%

Question: What about the “Eggs Hatched % C* (% hatch, normalized to control)” value ([1]; 5 ppm, 24 hr) of the same compound?
Answer: 100%

Question: What about the “Eggs Hatched No.” value ([1]; 5 ppm, 24 hr) of the same compound?
Answer: 58

Question: What about the “Eggs Hatched %” value ([1]; 5 ppm, 72 hr) of the same compound?
Answer: 14%

Question: And the “Eggs Hatched % C* (% hatch, normalized to control)” value ([1]; 5 ppm, 72 hr)?
Answer: 87%

Question: What about the “Eggs Hatched No.” value ([1]; 5 ppm, 72 hr) of the same compound?
Answer: 86

Question: What about the “Eggs Hatched %” value ([1]; 5 ppm, 120 hr) of the same compound?
Answer: 18%

Question: And the “Eggs Hatched % C* (% hatch, normalized to control)” value ([1]; 5 ppm, 120 hr)?
Answer: 82%

Question: What about the “Eggs Hatched No.” value ([1]; 5 ppm, 120 hr) of the same compound?
Answer: 118

Question: And the “Eggs Hatched %” value ([1]; 5 ppm, 168 hr)?
Answer: 22%

Question: What about the “Eggs Hatched % C* (% hatch, normalized to control)” value ([1]; 5 ppm, 168 hr) of the same compound?
Answer: 79%

Question: What about the “Eggs Hatched No.” value ([1]; 5 ppm, 168 hr) of the same compound?
Answer: 149

Question: And the “Eggs Hatched %” value ([1]; 10 ppm, 24 hr)?
Answer: 9%

Question: What about the “Eggs Hatched % C* (% hatch, normalized to control)” value ([1]; 10 ppm, 24 hr) of the same compound?
Answer: 90%

Question: And the “Eggs Hatched No.” value ([1]; 10 ppm, 24 hr)?
Answer: 58

Question: What about the “Eggs Hatched %” value ([1]; 10 ppm, 72 hr) of the same compound?
Answer: 12%

Question: What about the “Eggs Hatched % C* (% hatch, normalized to control)” value ([1]; 10 ppm, 72 hr) of the same compound?
Answer: 75%

Question: What about the “Eggs Hatched No.” value ([1]; 10 ppm, 72 hr) of the same compound?
Answer: 82

Question: What about the “Eggs Hatched %” value ([1]; 10 ppm, 120 hr) of the same compound?
Answer: 16%

Question: What about the “Eggs Hatched % C* (% hatch, normalized to control)” value ([1]; 10 ppm, 120 hr) of the same compound?
Answer: 72%

Question: What about the “Eggs Hatched No.” value ([1]; 10 ppm, 120 hr) of the same compound?
Answer: 105

Question: And the “Eggs Hatched %” value ([1]; 10 ppm, 168 hr)?
Answer: 20%

Question: And the “Eggs Hatched % C* (% hatch, normalized to control)” value ([1]; 10 ppm, 168 hr)?
Answer: 71%

Question: What about the “Eggs Hatched No.” value ([1]; 10 ppm, 168 hr) of the same compound?
Answer: 129

Question: What about the “Eggs Hatched %” value ([1]; 20 ppm, 24 hr) of the same compound?
Answer: 9%

Question: And the “Eggs Hatched % C* (% hatch, normalized to control)” value ([1]; 20 ppm, 24 hr)?
Answer: 90%

Question: What about the “Eggs Hatched No.” value ([1]; 20 ppm, 24 hr) of the same compound?
Answer: 52

Question: What about the “Eggs Hatched %” value ([1]; 20 ppm, 72 hr) of the same compound?
Answer: 11%

Question: And the “Eggs Hatched % C* (% hatch, normalized to control)” value ([1]; 20 ppm, 72 hr)?
Answer: 69%

Question: And the “Eggs Hatched No.” value ([1]; 20 ppm, 72 hr)?
Answer: 67

Question: What about the “Eggs Hatched %” value ([1]; 20 ppm, 120 hr) of the same compound?
Answer: 14%

Question: And the “Eggs Hatched % C* (% hatch, normalized to control)” value ([1]; 20 ppm, 120 hr)?
Answer: 64%

Question: What about the “Eggs Hatched No.” value ([1]; 20 ppm, 120 hr) of the same compound?
Answer: 85

Question: What about the “Eggs Hatched %” value ([1]; 20 ppm, 168 hr) of the same compound?
Answer: 17%

Question: And the “Eggs Hatched % C* (% hatch, normalized to control)” value ([1]; 20 ppm, 168 hr)?
Answer: 61%

Question: What about the “Eggs Hatched No.” value ([1]; 20 ppm, 168 hr) of the same compound?
Answer: 106

Question: And the “Eggs Hatched %” value ([1]; 40 ppm, 24 hr)?
Answer: 8%

Question: What about the “Eggs Hatched % C* (% hatch, normalized to control)” value ([1]; 40 ppm, 24 hr) of the same compound?
Answer: 80%

Question: What about the “Eggs Hatched No.” value ([1]; 40 ppm, 24 hr) of the same compound?
Answer: 47

Question: What about the “Eggs Hatched %” value ([1]; 40 ppm, 72 hr) of the same compound?
Answer: 11%

Question: What about the “Eggs Hatched % C* (% hatch, normalized to control)” value ([1]; 40 ppm, 72 hr) of the same compound?
Answer: 69%

Question: And the “Eggs Hatched No.” value ([1]; 40 ppm, 72 hr)?
Answer: 61

Question: What about the “Eggs Hatched %” value ([1]; 40 ppm, 120 hr) of the same compound?
Answer: 11%

Question: What about the “Eggs Hatched % C* (% hatch, normalized to control)” value ([1]; 40 ppm, 120 hr) of the same compound?
Answer: 50%

Question: What about the “Eggs Hatched No.” value ([1]; 40 ppm, 120 hr) of the same compound?
Answer: 74

Question: What about the “Eggs Hatched %” value ([1]; 40 ppm, 168 hr) of the same compound?
Answer: 12%

Question: And the “Eggs Hatched % C* (% hatch, normalized to control)” value ([1]; 40 ppm, 168 hr)?
Answer: 43%

Question: What about the “Eggs Hatched No.” value ([1]; 40 ppm, 168 hr) of the same compound?
Answer: 82
